Measured values: a melting point compilation (Tetko et al.; mined from patent text by program, amines drawn as free bases though some values may be those of a salt)

melting point [°C]	SMILES
137 to 138	COc1cc(OCn2nnc3ccccc32)c(C=O)cc1-c1cccs1
107	COCc1cnc2c(N)cccc2c1Cl
208 to 210	Cc1nc2cnccc2n1-c1ccc(C2=Nc3ccccc3NC(=O)C2)cn1
82 to 83	COc1cc(CC(=O)NCCOCc2ccc(C)c(C)c2)ccc1O
102 to 106	CC(C)(c1ccccc1)n1nnc(-c2ccccc2-c2ccc(C3OCCCO3)cc2)n1
55	O=c1cccccc1S
208 to 210	Nc1c(C(=O)c2ccccc2O)oc2ccc(Cl)cc12
112 to 114	CC(CCc1ccc2c(c1)OCO2)NCC(O)c1cc(C(N)=O)cs1 (configuration not stated)
152 to 154	OCc1ccc(Nc2nc(Oc3ccccc3)nc(Oc3ccccc3)n2)cc1
96.5 to 97	CC(CCC=O)C1CC=C2C3=C(CCC21C)C1(C)CCC(=O)C(C)(C)C1CC3 (configuration not stated)
132 to 134	COc1cc(C(C)C)c2c(c1)S(=O)(=O)N(COC(=O)c1sccc1C)C2=O
45 to 48	CC1(C)CC(N2CCN(Cc3ccccc3)C2=O)c2cc(C#N)ccc2O1 (configuration not stated)
58 to 59	C(=C1CCCc2cccnc21)c1ccccc1
125 to 128	CC1CC(=O)c2cc([N+](=O)[O-])c(Br)cc2O1 (configuration not stated)
122 to 124	O=C1CCCC(Cl)=C1C(=O)c1ccc(Cl)c(OCCn2cnnn2)c1Cl
127 to 128	O=[N+]([O-])c1ccc(S(=O)(=O)Nc2ccc(F)cc2)c([N+](=O)[O-])c1
130 to 135	COc1ccccc1NC(=O)Nc1ccc2c(c1)CCN(C(=O)Nc1ccc(OCCO)cc1Cl)C2
287 to 290	CC1(C)CNC(=O)c2c1ccc1nc(Nc3c(Cl)cccc3Cl)[nH]c21
271 to 274	CNc1cc(NS(=O)(=O)c2ccc(NC(C)=O)cc2)nc(N2CCCC2)n1
41 to 42	CCOc1cc(C=C(Br)Br)ccc1OC
193 to 195	CCS(=O)(=O)Nc1cc(-n2nc3n(c2=O)CCCS3)c(F)cc1C#N
124 to 126	O=C(c1cccnc1)c1cc(Br)cc(Br)c1
172 to 173	COc1ccc(CNC(N)=O)cc1OC
87 to 87.5	CC(=O)c1csc(-c2ccncc2)c1C

melting point [°C]	SMILES
148 to 151	CC(C=NO)n1nnc2ccc(Oc3cc(F)c(C(F)(F)F)c(Cl)c3)cc21 (configuration not stated)
203	Nc1c(I)c(C(=O)NCC(O)CO)c(I)c(C(=O)NCC(O)CO)c1I (single isomer, unassigned; (-))
227 to 229	CNC1=NS(=O)(=O)N=C1NCCSCc1csc(N(C)C)n1
101 to 103	CC(C)CNCc1cnc2[nH]c(-c3cc(OCc4ccccc4)ccc3OC(C)C)nc2c1
115 to 117	O=C1CN(c2ccccc2)C1=O
148 to 149	CCSCCOC(=O)C(=O)Nc1nc(-c2ccccc2)cs1
131 to 133	CC1(C)CC(=O)C=C(OC(=O)c2cccc3nnsc23)C1
132 to 134	CCOC(=O)Cc1c([N+](=O)[O-])cc([N+](=O)[O-])c2ccccc12
209 to 214	Cc1ccc(C(=O)Nc2ccccc2C(=O)NCCc2ncc[nH]2)cc1
95	CCCc1ncc(CC(=O)O)s1
80 to 84	CCn1c(-c2ccc(-n3ccnc3)cc2)cnc1[C@H](Cc1ccccn1)N(C=O)c1cc2cc(F)ccc2o1
185	O=C1c2cccc(NC(=S)Nc3cc[nH]n3)c2C2CC3(CCN12)SCCS3 (configuration not stated)
295	Cn1c2ccc(F)cc2c(=O)n2nc(C(=O)O)cc12
194 to 195	O=C1CC(c2ccc(O)cc2)Cc2ccccc21 (configuration not stated)
244 to 245	O=C(Cc1ccccc1Cl)N[C@H]1C[C@H](C(=O)O)Nc2cc(Cl)cc(Cl)c21 (relative stereo)
102 to 105	CC(C)CC(C(=O)O)C(=O)O
105	Nc1ccc(C2(c3ccc(F)cc3)OCCO2)cc1[N+](=O)[O-]
142 to 145	COCCNC(=O)COc1ccc(C(=O)CN2CCN(c3ccncc3)CC2)cc1
206 to 208	COc1ccc(-c2nc(C(=O)NCCO)c[nH]2)cc1OC1CCCC1
184 to 185	O=C(/C=C/CC1CCN(Cc2ccccc2)CC1)c1ccc(Nc2ncnc3c2CCC3)cc1
170 to 171	O=C(c1cc2ccnc(Cl)c2[nH]1)N1CCOCC1
268 to 270	Cc1nc2cnccc2n1-c1ccc(C2=Cc3nccn3-c3cc(Cl)c(Cl)cc3N2C)cc1
217 to 218	Cc1nc(-c2ccc(C(=O)c3ccccc3)cc2)sc1C(=O)O
247 to 248	COc1cccc2c1C(=O)N(CC(=O)N1c3ccccc3N(Cc3ccccc3)C(=O)[C@H]3CCC[C@H]31)C2=O (relative stereo)

melting point [°C]	SMILES
97 to 99	CCCOc1ccc(C(=O)Cn2cncn2)cc1
225	Cc1sc(S(=O)(=O)NC(C)(C)CO)cc1NC(=O)c1cnn2c(C(F)(F)F)cc(-c3ccc(C(F)(F)F)cc3)nc12
107	O=C(O)/C=C/c1cccc(OS(=O)(=O)C(F)(F)F)c1
309 to 311	CC(C)(C)c1ccc(-c2nc(NC(=O)C3CCCC3)sc2-c2ccncc2)cc1
96 to 97	CN(C)CCN(C(=O)c1cccc([N+](=O)[O-])c1Br)c1ccnc2cc3c(cc12)OCO3
117 to 119	O=C(C[C@@H](CCCC1CCCCC1)c1nc(CN2CCOCC2)co1)NO
95 to 97	CC(=Cc1cccc(F)c1)C(=O)O
194 to 195	Cn1cc(-c2cccc(C(F)(F)F)c2)c(=O)c(C2CC=CCC2)c1 (configuration not stated)
93 to 94	CC1(C)CC(=O)N(CCCCN2CCN(c3nc(C(C)(C)C)cs3)CC2)C(=O)C1
200 to 206	CN(C)c1nc(-c2ccc3c(c2)OCO3)c2cc3c(cc2n1)OCO3
154	N#CC=C(c1ccc(-c2ccccc2)cc1)c1ccc(-c2ccccc2)cc1
103 to 104	Cc1ccc(C)c(NC(=O)OC(C)(C)C)c1
139 to 140	COc1ccc(N)c(OCC(N)=O)c1
80 to 82	CCNC(=O)c1cccc(F)c1[Si](C)(C)C
> 300	CCc1nc2c(N)nc(-c3ccncc3)nc2[nH]1
76 to 78	CC1=C(Cl)CC2C(=O)OC(=O)C2C1 (configuration not stated)
> 250	CC(=NO)c1ccc2c(c1)C(=NNc1cccc(S(N)(=O)=O)c1C)C(=O)N2
105 to 125	Cc1cccc(Br)c1C(=O)c1sc(Nc2ccc(N3CCOCC3)cc2)nc1N
82 to 95	COc1cc(C2CCN(CC(O)CF)CC2)ccc1Nc1ncc2ccc(-c3ccccc3N(C)S(C)(=O)=O)n2n1 (configuration not stated)
135 to 137	Cc1noc2ccc(Oc3ncccc3C(=O)NCC3CCC(C(C)(C)O)CC3)cc12 (configuration not stated)
150 to 152	COC(=O)c1nc(-c2ccc(Cl)c(OC)c2F)nc(N)c1C(C)F (configuration not stated)
133 to 136	CC(C)(CCn1cnc(-c2ccccc2)c1)NCC(O)c1ccc(O)c(NS(C)(=O)=O)c1 (configuration not stated)
135 to 138	CC1CC(=O)c2cc(N)c(F)cc2O1 (configuration not stated)
113 to 115	OCc1cc2c3n(ccc-2n1)CC(Br)=N3

melting point [°C]	SMILES
126	COCC(=O)N[C@H]1CC[C@H](CCN2CCN(c3nccc4c3OCC4)CC2)CC1
182	O=c1c([N+](=O)[O-])c(O)c2cccnc2n1Cc1ccccc1
102 to 105	CCCCn1cnnc1SC(=O)c1ccoc1
211 to 213	Cc1cc(C)c2[nH]c(=O)c(O)cc(=O)c2c1
157 to 161	CCCc1nc(CC)c(C(=O)O)n1Cc1ccc(C2(C(=O)O)CC=CC2)s1
199 to 200	FC(F)(F)c1cc(Nc2nc3ccccc3o2)ccc1Cl
65 to 69	CCOC(=O)c1cccnc1Oc1cncc(Cl)c1
> 210	Cc1c(F)c(Oc2cccc(C(=N)N)c2)nc(Oc2cccc(C(=N)N)c2)c1F
141 to 142	CC1=CC(OC(=O)c2cccn2C)C(O)C(C)(C)CC1=O (configuration not stated)
145 to 146	CC(C)(C)OC(=O)N[C@@H](Cc1ccccc1)C[C@H](O)[C@H](Cc1ccccc1)N(Cc1ccccc1)Cc1ccccc1
208	CC1(C)CC(=O)c2c(S(C)(=O)=O)sc(C(=O)O)c2C1
95 to 97	COCCNc1nccc(Oc2ccc(NC(=O)c3cc(F)cc(N4CCOCC4)c3)c3ccccc23)n1
232 to 233	ClCc1c(Br)c(Br)c(CCl)c(Br)c1Br
133 to 135	CC1(C(O)CBr)COc2cc(Cl)ccc2O1 (configuration not stated)
90 to 92	CC1(C)Cc2cc(OCCO)c3c(c2C(c2ccccc2)=N1)CC(C)(C)O3
166 to 167	CC(C)(C)C(NC(=O)c1ccc(Cl)cc1)NS(=O)(=O)Nc1cccnc1 (configuration not stated)
55 to 56	CCCN(Sc1nc2ccccc2s1)C(C)(C)C
321 to 323	N#Cc1c2ccccc2c(-c2cc(Br)c(O)c(Br)c2)c2c1sc1ccccc12
159 to 165	NNC(=O)Cc1cc(C(=O)c2ccc(I)c(N)c2)sc1-c1ccccc1
202 to 204	N[C@@H](CCC(=O)NCCS(=O)(=O)O)C(=O)O
247 to 251	Cc1[nH]c(C(=O)N2CCC(C(=O)NCCCN(C)C)CC2)c(C)c1-c1nc2ccc(C(=O)c3ccccc3)cc2[nH]1
213	CNC(=S)Nc1ccc(C2=NNC(=O)CC2C)cc1 (configuration not stated)
254 to 255	Cc1cn(-c2ccc3nc(NC(=O)c4ccc(C(C)(C)C)cc4)cn3n2)c(C)n1
249 to 250	CCOC1CC(n2cc(CC)c(=O)[nH]c2=O)OC1CNC(=O)Cc1c(Cl)cccc1Cl (configuration not stated)

SMILES	melting point [°C]
O=C1NC(=O)C(c2ccc(Oc3ccccc3)cc2)C(=O)N1	> 240
BrCc1noc2ccccc12	60 to 62
Cc1c(O)cc(O)c(C)c1C(=O)OCC(Cl)(Cl)Cl	132 to 133
CC1(C)CCC(C)(C)c2cc(-c3ccccc3C=O)ccc21	85 to 87
CN(C)C(=O)c1nc2n(n1)-c1ccc([N+](=O)[O-])cc1C(c1ccccc1)=NC2	209 to 211
C=C=CC12CCC(=O)C=C1C=CC1C3CCC(=O)C3(C)CCC12 (configuration not stated)	152 to 154
